Consider five compounds from paper PMC5248581 (PeerJ, 2017).

The target in one data set is T1, rat recombinant myc-B2R (Rattus norvegicus, UniProt P25023).
T1 construct: expressed in transfected cells
T1 sequence (P25023 1-396): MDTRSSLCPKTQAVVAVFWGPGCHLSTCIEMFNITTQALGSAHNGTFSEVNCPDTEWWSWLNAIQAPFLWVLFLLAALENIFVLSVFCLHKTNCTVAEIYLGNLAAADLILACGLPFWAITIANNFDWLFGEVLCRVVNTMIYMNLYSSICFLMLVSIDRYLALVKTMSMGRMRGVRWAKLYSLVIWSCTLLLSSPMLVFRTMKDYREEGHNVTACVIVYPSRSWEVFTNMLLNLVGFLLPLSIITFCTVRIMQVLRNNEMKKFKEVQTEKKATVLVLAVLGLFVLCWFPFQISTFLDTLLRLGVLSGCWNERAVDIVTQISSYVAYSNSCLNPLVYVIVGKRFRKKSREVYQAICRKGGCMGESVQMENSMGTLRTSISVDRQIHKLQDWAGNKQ
The data set is described as follows: [3H]BK binding competition, rat myc-B2R. The note with it: 3 nM [3H]BK, 0 °C, intact HEK 293a cells, peptidase inhibitors (captopril, PMSF); [95% C.L.]. The method, then:
(§1) The construction of myc-tagged B2R expression vectors containing the human and rat receptor sequence has been recently reported, as well as the derivation of HEK 293a cell lines that stably express each one of these constructions ([Charest-Morin et al., 2015]). The HEK 293a cell line was originally obtained from Sigma-Aldrich. Affinity of N-terminally extended kinins for the B2R was evaluated using a radioligand binding competition assay performed at 0 °C in the presence of peptidase inhibitors that included captopril and PMSF ([Houle et al., 2000]).
(§2) Results are presented as means ± s.e.m.

The target of data set [1] is T2, human isolated umbilical vein (BK B2R; histamine H1R) (Homo sapiens, UniProt P30411).
T2 sequence (P30411 1-391): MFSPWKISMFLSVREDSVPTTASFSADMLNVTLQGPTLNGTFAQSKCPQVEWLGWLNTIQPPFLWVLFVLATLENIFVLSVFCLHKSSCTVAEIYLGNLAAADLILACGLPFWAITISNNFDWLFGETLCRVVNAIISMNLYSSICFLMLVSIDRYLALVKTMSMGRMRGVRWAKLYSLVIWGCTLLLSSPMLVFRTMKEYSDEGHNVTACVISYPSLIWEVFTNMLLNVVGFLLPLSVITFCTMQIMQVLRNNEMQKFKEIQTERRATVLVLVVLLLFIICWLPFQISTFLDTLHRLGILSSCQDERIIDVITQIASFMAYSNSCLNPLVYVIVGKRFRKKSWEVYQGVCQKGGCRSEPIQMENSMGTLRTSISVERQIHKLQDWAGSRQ
As to conditions: ref Gera et al., 2011; Charest-Morin et al., 2014; cited from earlier work. The text has this: The isolated umbilical vein has a low intrinsic sensitivity to endothelium-dependent vasodilation owing to its >20 layers of B2R-expressing smooth muscle cells ([Koumbadinga et al., 2010]; [Jean et al., 2016b]).

Data set [2] can be described thus: LC-MS of MK incubated with human umbilical vein ring. In kind it is in vitro ADME. The note with it: MK (100 fmol analysed), 37 °C, 5 or 15 min. The method, then:
Synthetic MK (1 µM) was submitted to digestion in 2 ml of sterile-filtered Krebs solution in the presence of a freshly prepared ring of human umbilical vein (wet weight 25–37 mg). The tubes containing these materials were incubated at 37 °C for 5 or 15 min; the tissues were then removed and five volumes of cold ethanol (10 ml) were added to each tube. The tubes were incubated for 1 h on ice, centrifuged at 10,000 g to remove precipitated proteins and the kinin-containing supernatants were collected (procedure previously validated, [Raymond et al., 1995]). The supernatants were then completely evaporated to dryness in a Speedvac system and reconstituted in a small volume of water. Peptides were desalted on stage tip (C18), vacuum dried and then resuspended into 0.1% formic acid. One hundred fmol of each sample (starting MK quantity) was analyzed by mass spectrometry.
Mass spectrometry: peptide samples were separated by online reversed-phase (RP) nanoscale capillary liquid chromatography (nanoLC) and analyzed by electrospray mass spectrometry (ES MS/MS). The experiments were performed with a Ekspert NanoLC425 (Eksigent) coupled to a 5600+ mass spectrometer (AB Sciex, Framingham, MA, USA) equipped with a nanoelectrospray ion source. Peptide separation took place on a picofrit column (Reprosil 3u, 120A C18, 15 cm × 0.075 mm internal diameter). Peptides were eluted with a linear gradient from 5–35% solvent B (acetonitrile, 0.1% formic acid) in 35 min, at 300 nL/min. Mass spectra were acquired using a data dependent acquisition mode using Analyst software version 1.7. […] Dynamic exclusion was set for a period of 3 s and a tolerance of 100 ppm
Database searching: MGF peak list files were created using Protein Pilot version 5.0 software (Sciex) utilizing the Paragon and Progroup algorithms. MGF sample files were then analyzed using Mascot (Matrix Science, London, UK; version 2.5.1).
Mascot was set up to search the MK sequence assuming that the digestion enzyme was non-specific. Mascot was searched with a fragment ion mass tolerance of 0.100 Da and a parent ion tolerance of 0.100 Da. Deamidation of asparagine and glutamine and oxidation of methionine were specified in Mascot as variable modifications. Scaffold (version Scaffold_4.7.1; Proteome Software Inc., Portland, OR, USA) was used to validate MS/MS based peptide and protein identifications.
Data processing: Peak View 1.2.0.1 (Sciex) was used to extract the specific precursor masses and calculate the area under the curve. Extracted ion chromatoram (XIC) were generated from the TOF MS using a peak width of 0.05.

Data set [3] can be described thus: Plasma level after injection. The note with it: after injection at the highest tested dose in vivo. More on the design: species or system rat.
Data set [4] addresses T3, recombinant human myc-B2R (Homo sapiens, UniProt P30411).
T3 construct: expressed in transfected cells
T3 sequence (P30411 1-391): T2 sequence (P30411 1-391)
As to the kind of experiment: [3H]BK binding competition, human myc-B2R. As to conditions: for IC50: 3 nM [3H]BK, 0 °C, intact HEK 293a cells, peptidase inhibitors (captopril, PMSF), [95% C.L.]. The method, then: as §1, §2

Data set [5] concerns the target T2, human isolated umbilical vein (BK B2R; histamine H1R). The note with it: for EC50: read-out: Human umbilical vein EC50, contraction, cumulative, [95% C.L.]. The text has this:
The institutional research ethics board (CHU de Québec) approved the anonymous use of human umbilical cord segments obtained after elective cesarean section deliveries (file number: 2012-323). Informed written consent was obtained from mothers.
Results are presented as means ± s.e.m. Radioligand binding data were fitted by nonlinear regression to a one-site competition equation using a least-square method (Prism 5.0; GraphPad Software Inc., San Diego, CA, USA) and IC50 values calculated from this procedure. The same computer program was used to draw concentration-effect curves (least square fitting of sigmoidal dose–response equation with variable slope) and to derive contractile EC50 values. Data describing baseline values of heart rate and mean arterial blood pressure and hypotensive responses to peptides in anesthetized rats were assessed by using one-way analysis of variance (ANOVA) followed by the Dunnett’s test (repeated comparison with a common control). The effects of drugs on the hypotensive responses to each dose of MK were assessed by using ANOVA followed by the Dunnett’s test.

Another data set deals with human BK B1 receptor. The note with it: ref Charest-Morin & Marceau, 2016; cited from earlier work. The source says: MRGPRX2 has been recently described as a promiscuous receptor for cationic polymers and drugs that produce direct mast cell degranulation ([McNeil et al., 2015]). […] The contractile effect of MK on the human umbilical vein and ...
The next data set relates to rat mast cells. As to conditions: read-out: histamine release EC50; ref Devillier et al., 1985; cited from earlier work. The text has this:
MK, encoded by two genes as five identical and cleavable amino acid sequences ([Chen et al., 2003]), is presumably a dissuasive toxin expressed in the skin of the toad Bombina maxima. Several such BK-related peptides of amphibian origin are believed to have co-evolved with the kinin receptors of the predatory species such as birds and snakes ([Xi et al., 2015]).

Residues, ends and D or L forms follow the SMILES beside them.

In the case of `NC(N)=NCCC[C@H](NC(=O)[C@H](Cc1ccccc1)NC(=O)[C@@H]1CCCN1C(=O)[C@H](CO)NC(=O)[C@H](Cc1ccccc1)NC(=O)CNC(=O)[C@@H]1CCCN1C(=O)[C@@H]1CCCN1C(=O)[C@@H](N)CCCN=C(N)N)C(=O)O` [BK, bradykinin] (H-RPPGFSPFR-OH), the 50% inhibitory concentration (IC50) at rat recombinant myc-B2R worked out at 0.0192 µM.

With “Met-Lys-BK-Ser-Ser [BK prodrug prolonged at the C-terminus]”, in data set [1], the “apparent potency in presence of specific peptidase inhibitors” value is listed as “decreased apparent potency”.

In the case of `CC[C@H](C)[C@H](NC(=O)[C@H](CCCCN)NC(=O)[C@@H]1CCCN1C(=O)[C@H](CC(C)C)NC(=O)[C@@H](N)CC(=O)O)C(=O)N[C@@H](CC(N)=O)C(=O)N[C@@H](CCCNC(=N)N)C(=O)N[C@@H](CCCCN)C(=O)NCC(=O)N1CCC[C@H]1C(=O)N[C@@H](CCCNC(=N)N)C(=O)N1CCC[C@H]1C(=O)N1CCC[C@H]1C(=O)NCC(=O)N[C@@H](Cc1ccccc1)C(=O)N[C@@H](CO)C(=O)N1CCC[C@H]1C(=O)N[C@@H](Cc1ccccc1)C(=O)N[C@@H](CCCNC(=N)N)C(=O)O` [MK, maximakinin] (H-DLPKINRKGPRPPGFSPFR-OH), the “consumption of MK” value in data set [2] was “consumed during the reaction”. Besides, in data set [3], the “plasma concentration upper limit” value was ≤ 100 nM. Besides, the IC50 was found to be 0.12 µM on rat recombinant myc-B2R and 7.56 µM in data set [4]. Also, in data set [5], the EC50 was 0.145 µM.

As for `CC[C@H](C)[C@H](NC(=O)[C@H](CCCCN)NC(=O)[C@@H]1CCCN1C(=O)[C@H](CC(C)C)NC(=O)[C@@H](N)CC(=O)O)C(=O)N[C@@H](CC(N)=O)C(=O)N[C@@H](CCCNC(=N)N)C(=O)N[C@@H](CCCCN)C(=O)NCC(=O)N1CCC[C@H]1C(=O)N[C@@H](CCCNC(=N)N)C(=O)N1CCC[C@H]1C(=O)N1CCC[C@H]1C(=O)NCC(=O)N[C@@H](Cc1ccccc1)C(=O)N[C@@H](CO)C(=O)N1CCC[C@H]1C(=O)N[C@@H](Cc1ccccc1)C(=O)O` [MK-des-Arg] (H-DLPKINRKGPRPPGFSPF-OH; N-terminus and C-terminus assumed), the IC50 in data set [4] is > 10 µM. In addition, the “displacement of [3H]BK binding / affinity” value in data set [4] (human myc-B2R) was “did not significantly displace [^3H]BK binding”. Further, in the data set with human BK B1 receptor, the “B1R affinity” value was “very low affinity”. For the same compound, in data set [5], the “contractile effect” value is on record as “negligible effects” and the EC50 was > 10 µM.

Regarding Lys-BK, in the data set on rat mast cells, the EC50 is 7.7 µM.
